In brackets after ≈: the same amount, converted by molar mass. Where a SMILES comes first, the peptide text is derived from it. Bridges are numbered along the chain shown (N, C = ends). Roman numbers before positions name the chains, in order. [ ]: non-standard residue; d: D form. The star is where a group is joined. Tyrosinol = OC[C@H](Cc1ccc(O)cc1)N*; Thr(ol) = C[C@@H](O)[C@H](N)CO; Pen = CC(C)(S)[C@H](N)C(=O)O; Tle = CC(C)(C)[C@H](N)C(=O)O; Hiv = CC(C)[C@H](O)C(=O)O; dDab = NCC[C@@H](N)C(=O)O; hSer = N[C@@H](CCO)C(=O)O; Dab = NCC[C@H](N)C(=O)O; Dap = NC[C@H](N)C(=O)O
Assays:
Format in all cases: cell-based
[1] = tested on: Acinetobacter baumannii 872842; conditions: 872842
How it was run: (§1)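 Visible-growth endpoint after 18-20 h at 35° C defines the MIC (μg/mL). Setup: CLSI broth microdilution, MH-II cation-adjusted broth with P-80 at 0.002% final, inoculum of approximately 10^6 CFU/mL, two-fold serial peptide dilutions.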

[2] = tested on: Acinetobacter baumannii DSM 30008; conditions: DSM 30008
How it was run: as §1

[3] = tested on: Enterobacter cloacae 848840; conditions: 848840
How it was run: as §1

Escherichia coli 926415 = conditions: 926415
How it was run: as §1

[4] = tested on: Escherichia coli ATCC 25922; conditions: ATCC 25922
How it was run: as §1

[5] = tested on: Klebsiella pneumoniae 968733; conditions: 968733
How it was run: as §1

[6] = tested on: Klebsiella pneumoniae SSI #3010; conditions: SSI #3010
How it was run: as §1

[7] = tested on: Pseudomonas aeruginosa ATCC 27853; conditions: ATCC 27853
How it was run: as §1

[8] = tested on: human red blood cells (hRBC); experiment: Hemolysis; conditions: red cells of human, 1 h, 200
How it was run: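 Percent hemolysis relative to 2% Triton X-100 (100%) and PBS/10% water (0%), from blank-corrected OD540 of diluted supernatants. Peptides tested at 200 μg/mL against 20% (v/v) washed human erythrocytes, 1 h, 37° C, shaking at 300 rpm.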

Row | Compound | MIC [1] | MIC [2] | MIC [3] | MIC (Escherichia coli 926415) | MIC [4] | MIC [5] | MIC [6] | MIC [7] | Hemolysis at 200 μg/mL [8] | Acinetobacter baumannii DSM 30008 MIC [2] | Escherichia coli ATCC 25922 MIC [4] | Klebsiella pneumoniae SSI #3010 MIC [6] | Pseudomonas aeruginosa ATCC 27853 MIC [7]
1 | CC(C)C[C@@H]1NC(=O)[C@@H](CC(C)C)NC(=O)[C@H](CCN)NC(=O)[C@@H](NC(=O)[C@H](CCN)NC(=O)[C@@H](NC(=O)[C@H](CCN)NC(=O)CC[C@@H]2NC(=O)[C@@H](NC(=O)[C@H](Cc3ccc(O)cc3)NC(=O)[C@@H](NC(=O)[C@@H](O)C(C)C)[C@@H](C)O)CSSC[C@@H](C(=O)N[C@H](C(=O)N[C@@H](C)C(=O)N[C@H](CO)[C@@H](C)O)C(C)(C)C)NC(=O)[C@H](Cc3c[nH]c4ccccc34)NC(=O)[C@H](CCO)NC(=O)[C@@H](CCN)NC2=O)[C@@H](C)O)CCNC(=O)[C@H]([C@@H](C)O)NC(=O)[C@H](CCN)NC(=O)[C@H](CCN)NC1=O [Ex. 193] (I: H-[Hiv]TYCE[dDab][hSer]WC[Tle]A[Thr(ol)] / II: [Dab]T[Dab][Dab][Dab][dL]L[Dab][Dab]T; disulfide I:4-I:9; amide I:5-II:N; lactam II:4-II:C) | 0.5 µg/mL (≈ 0.21 µM) | 0.0625 µg/mL (≈ 0.0262 µM) | 0.5 µg/mL (≈ 0.21 µM) | 0.5 µg/mL (≈ 0.21 µM) | 0.125 µg/mL (≈ 0.0524 µM) | 0.5 µg/mL (≈ 0.21 µM) | 0.25 µg/mL (≈ 0.105 µM) | 0.25 µg/mL (≈ 0.105 µM) | <1% |  |  |  | 
2 | CC(=O)N[C@H](C(=O)N[C@H]1CSSC[C@@H](C(=O)N[C@@H](CO)C(N)=O)NC(=O)[C@H](C(C)C)NC(=O)[C@@H]2CSSC[C@H](NC(=O)[C@H](Cc3ccc(O)cc3)NC1=O)C(=O)N[C@@H](CCC(=O)N[C@@H](CCN)C(=O)N[C@H](C(=O)N[C@@H](CCN)C(=O)N[C@H]1CCNC(=O)[C@H]([C@@H](C)O)NC(=O)[C@H](CCN)NC(=O)[C@H](CCN)NC(=O)[C@H](CC(C)C)NC(=O)[C@@H](CC(C)C)NC(=O)[C@H](CCN)NC1=O)[C@@H](C)O)C(=O)N[C@H](CCN)C(=O)N[C@@H](CCO)C(=O)N[C@@H](Cc1c[nH]c3ccccc13)C(=O)N2)C(C)C [Ex. 175] (I: Ac-VCYCE[dDab][hSer]WCVCS-NH2 / II: [Dab]T[Dab][Dab][Dab][dL]L[Dab][Dab]T; disulfide I:2-I:11, I:4-I:9; amide I:5-II:N; lactam II:4-II:C) | 0.0625 µg/mL (≈ 0.0256 µM) | 0.125 µg/mL (≈ 0.0511 µM) | 0.25 µg/mL (≈ 0.102 µM) | 0.25 µg/mL (≈ 0.102 µM) | 0.0625 µg/mL (≈ 0.0256 µM) | 0.5 µg/mL (≈ 0.205 µM) | 0.125 µg/mL (≈ 0.0511 µM) | 0.125 µg/mL (≈ 0.0511 µM) | 1% |  |  |  | 
3 | CC(C)C[C@@H]1NC(=O)[C@@H](CC(C)C)NC(=O)[C@H](CCN)NC(=O)[C@@H](NC(=O)[C@H](CCN)NC(=O)[C@@H](NC(=O)[C@H](CCN)NC(=O)CC[C@@H]2NC(=O)[C@H](CCN)NC(=O)[C@H](Cc3ccc(O)cc3)NC(=O)[C@@H](NC(=O)[C@@H](N)C(C)C)C(C)(C)SSC[C@@H](C(=O)N[C@@H](CO)C(=O)O)NC(=O)[C@H](C(C)(C)C)NC(=O)[C@H](CO)NC(=O)[C@H](Cc3c[nH]c4ccccc34)NC(=O)[C@H]([C@@H](C)O)NC(=O)[C@@H](CCN)NC2=O)[C@@H](C)O)CCNC(=O)[C@H]([C@@H](C)O)NC(=O)[C@H](CCN)NC(=O)[C@H](CCN)NC1=O [Ex. 54] (I: H-V[Pen]Y[Dab]E[dDab]TWS[Tle]CS-OH / II: [Dab]T[Dab][Dab][Dab][dL]L[Dab][Dab]T; disulfide I:2-I:11; amide I:5-II:N; lactam II:4-II:C) | 0.5 µg/mL (≈ 0.206 µM) | 0.25 µg/mL (≈ 0.103 µM) | 4 µg/mL (≈ 1.65 µM) | 0.5 µg/mL (≈ 0.206 µM) | 0.0625 µg/mL (≈ 0.0257 µM) | 4 µg/mL (≈ 1.65 µM) | 0.25 µg/mL (≈ 0.103 µM) | 0.25 µg/mL (≈ 0.103 µM) | <1% |  |  |  | 
4 | CC(C)C[C@@H]1NC(=O)[C@@H](CC(C)C)NC(=O)[C@H](CCN)NC(=O)[C@@H](NC(=O)[C@H](CCN)NC(=O)[C@@H](NC(=O)[C@H](CCN)NC(=O)CC[C@@H]2NC(=O)[C@H](CCN)NC(=O)[C@H](Cc3ccc(O)cc3)NC(=O)[C@@H](NC(=O)[C@@H](O)C(C)C)CSSC[C@@H](C(=O)N[C@H](CO)[C@@H](C)O)NC(=O)[C@H](C(C)(C)C)NC(=O)[C@H](CCO)NC(=O)[C@H](Cc3c[nH]c4ccccc34)NC(=O)[C@H](CCO)NC(=O)[C@@H](CCN)NC2=O)[C@@H](C)O)CCNC(=O)[C@H]([C@@H](C)O)NC(=O)[C@H](CCN)NC(=O)[C@H](CCN)NC1=O [Ex. 81] (I: H-[Hiv]CY[Dab]E[dDab][hSer]W[hSer][Tle]C[Thr(ol)] / II: [Dab]T[Dab][Dab][Dab][dL]L[Dab][Dab]T; disulfide I:2-I:11; amide I:5-II:N; lactam II:4-II:C) | 0.25 µg/mL (≈ 0.104 µM) | 0.125 µg/mL (≈ 0.0518 µM) | 0.125 µg/mL (≈ 0.0518 µM) | 0.125 µg/mL (≈ 0.0518 µM) | 0.0625 µg/mL (≈ 0.0259 µM) | 0.125 µg/mL (≈ 0.0518 µM) | 0.0625 µg/mL (≈ 0.0259 µM) | 0.125 µg/mL (≈ 0.0518 µM) | <1% |  |  |  | 
5 | CC(C)C[C@@H]1NC(=O)[C@@H](CC(C)C)NC(=O)[C@H](CCN)NC(=O)[C@@H](NC(=O)[C@H](CCN)NC(=O)[C@@H](NC(=O)[C@H](CCN)NC(=O)CC[C@@H]2NC(=O)[C@H](CCN)NC(=O)[C@H](Cc3ccc(O)cc3)NC(=O)[C@@H](NC(=O)[C@@H](N)C(C)C)CSSC[C@@H](C(=O)N[C@@H](CO)C(N)=O)NC(=O)[C@H](C(C)(C)C)NC(=O)[C@H](CO)NC(=O)[C@H](Cc3c[nH]c4ccccc34)NC(=O)[C@H]([C@@H](C)O)NC(=O)[C@@H](CCN)NC2=O)[C@@H](C)O)CCNC(=O)[C@H]([C@@H](C)O)NC(=O)[C@H](CCN)NC(=O)[C@H](CCN)NC1=O [Ex. 47] (I: H-VCY[Dab]E[dDab]TWS[Tle]CS-NH2 / II: [Dab]T[Dab][Dab][Dab][dL]L[Dab][Dab]T; disulfide I:2-I:11; amide I:5-II:N; lactam II:4-II:C) | 0.125 µg/mL (≈ 0.0521 µM) | 0.125 µg/mL (≈ 0.0521 µM) | 4 µg/mL (≈ 1.67 µM) | 0.25 µg/mL (≈ 0.104 µM) | 0.0625 µg/mL (≈ 0.0261 µM) | 1 µg/mL (≈ 0.417 µM) | 0.125 µg/mL (≈ 0.0521 µM) | 0.125 µg/mL (≈ 0.0521 µM) | <1% |  |  |  | 
6 | CC(=O)N[C@H](C(=O)N[C@H]1CSSC[C@@H](C(=O)N[C@@H](CO)C(N)=O)NC(=O)[C@H](C(C)C)NC(=O)[C@H](CO)NC(=O)[C@H](Cc2c[nH]c3ccccc23)NC(=O)[C@H](CO)NC(=O)[C@@H](CCN)NC(=O)[C@H](CCC(=O)N[C@@H](CCN)C(=O)N[C@H](C(=O)N[C@@H](CN)C(=O)N[C@H]2CCNC(=O)[C@H]([C@@H](C)O)NC(=O)[C@H](CCN)NC(=O)[C@H](CCN)NC(=O)[C@H](C(C)C)NC(=O)[C@@H](CC(C)C)NC(=O)[C@H](CCN)NC2=O)[C@@H](C)O)NC(=O)[C@H](CCN)NC(=O)[C@H](Cc2ccc(O)cc2)NC1=O)C(C)C [Ex. 312] (I: Ac-VCY[Dab]E[dDab]SWSVCS-NH2 / II: [Dab]T[Dap][Dab][Dab][dL]V[Dab][Dab]T; disulfide I:2-I:11; amide I:5-II:N; lactam II:4-II:C) | 0.0625 µg/mL (≈ 0.0262 µM) |  | 0.0625 µg/mL (≈ 0.0262 µM) | 0.25 µg/mL (≈ 0.105 µM) |  | 0.125 µg/mL (≈ 0.0524 µM) |  |  | <1% | 0.03125 µg/mL | 0.03125 µg/mL | 0.0625 µg/mL | 0.125 µg/mL
7 | CC(C)C[C@@H]1NC(=O)[C@@H](CC(C)C)NC(=O)[C@H](CCN)NC(=O)[C@@H](NC(=O)[C@H](CCN)NC(=O)[C@@H](NC(=O)[C@H](CCN)NC(=O)CC[C@@H]2NC(=O)[C@H](CCN)NC(=O)[C@H]([C@@H](C)O)NC(=O)[C@@H](NC(=O)[C@@H](O)C(C)C)CSSC[C@@H](C(=O)N[C@H](CO)Cc3ccc(O)cc3)NC(=O)[C@H](C(C)(C)C)NC(=O)[C@H](CO)NC(=O)[C@H](Cc3c[nH]c4ccccc34)NC(=O)[C@H](CCO)NC(=O)[C@@H](CCN)NC2=O)[C@@H](C)O)CCNC(=O)[C@H]([C@@H](C)O)NC(=O)[C@H](CCN)NC(=O)[C@H](CCN)NC1=O [Ex. 93] (I: H-[Hiv]CT[Dab]E[dDab][hSer]WS[Tle]C-Tyrosinol / II: [Dab]T[Dab][Dab][Dab][dL]L[Dab][Dab]T; disulfide I:2-I:11; amide I:5-II:N; lactam II:4-II:C) | 0.5 µg/mL (≈ 0.208 µM) | 0.25 µg/mL (≈ 0.104 µM) | 0.25 µg/mL (≈ 0.104 µM) | 0.25 µg/mL (≈ 0.104 µM) | 0.125 µg/mL (≈ 0.0521 µM) | 0.5 µg/mL (≈ 0.208 µM) | 0.125 µg/mL (≈ 0.0521 µM) | 0.25 µg/mL (≈ 0.104 µM) | <1% |  |  |  | 
